# According to ChEMBL document CHEMBL4138163, “DMXAA-pyranoxanthone hybrids enhance inhibition activities against human cancer cells with multi-target functions” (Eur J Med Chem, 2018):
# Activity calls are given as the source filed them. No cut-off for these calls is given here.
# Key:
# [1] = system: MDA-MB-231; experiment: Antiproliferative activity against human MDA-MB-231 cells after 24 hrs by MTT assay; type: functional, cell-based; settings: MDA-MB-231, 24 h
# [2] = system: MCF7; experiment: Antiproliferative activity against human MCF7 cells after 24 hrs by MTT assay; type: functional, cell-based; settings: MCF7, 24 h
# [3] = system: HepG2; experiment: Antiproliferative activity against human HepG2 cells after 24 hrs by MTT assay; type: functional, cell-based; settings: HepG2, 24 h
# [4] = system: K562; experiment: Antiproliferative activity against human K562 cells after 24 hrs by MTT assay; type: functional, cell-based; settings: K562, 24 h
# [5] = system: L02; experiment: Antiproliferative activity against human HL-7702 cells after 24 hrs by MTT assay; type: functional, cell-based; settings: L02, 24 h
# [6] = system: NIH3T3; experiment: Antiproliferative activity against mouse NIH/3T3 cells after 24 hrs by MTT assay; type: cell-based; settings: mouse, nih3t3, 24 h
# [7] = system: NIH3T3; experiment: Antiproliferative activity against mouse NIH/3T3 cells after 48 hrs by MTT assay; type: cell-based; settings: nih3t3, 48 h
# [8] = system: L02; experiment: Antiproliferative activity against human HL-7702 cells after 48 hrs by MTT assay; type: functional, cell-based; settings: L02, 48 h
# [9] = Selectivity ratio of IC50 for human HL-7702 cells to IC50 for human HepG2 cells; type: functional
# [10] = system: HepG2; experiment: Induction of apoptosis in human HepG2 cells assessed as early apoptotic cells at 0.2 uM after 24 hrs by annexin-V/propidium iodide staining-based flow cytometric method relative to control; type: functional
# [11] = system: HepG2; experiment: Induction of apoptosis in human HepG2 cells assessed as late apoptotic cells at 0.2 uM after 24 hrs by annexin-V/propidium iodide staining-based flow cytometric method relative to control; type: functional
# [12] = system: HepG2; experiment: Induction of apoptosis in human HepG2 cells assessed as increase in cleaved caspase-3 levels at 0.2 uM after 24 hrs by Western blot method; type: functional, cell-based
# [13] = system: HepG2; experiment: Induction of apoptosis in human HepG2 cells assessed as increase in cleaved caspase-9 levels at 0.2 uM after 24 hrs by Western blot method; type: functional, cell-based
# [14] = system: HepG2; experiment: Induction of apoptosis in human HepG2 cells assessed as increase in cleaved PARP levels at 0.2 uM after 24 hrs by Western blot method; type: functional, cell-based
# [15] = biological target: Tumour suppressor p53/oncoprotein Mdm2 (Homo sapiens) (UniProt P04637+Q00987); experiment: Inhibition of MDM2/p53 interaction in human HepG2 cells assessed as increase in p53 to MDM2 ratio at 0.2 uM after 24 hrs by Western blot method (reference value: 0.083); type: cell-based
# Tumour suppressor p53/oncoprotein Mdm2 (Homo sapiens), sequence (P04637 whole entry, looked up): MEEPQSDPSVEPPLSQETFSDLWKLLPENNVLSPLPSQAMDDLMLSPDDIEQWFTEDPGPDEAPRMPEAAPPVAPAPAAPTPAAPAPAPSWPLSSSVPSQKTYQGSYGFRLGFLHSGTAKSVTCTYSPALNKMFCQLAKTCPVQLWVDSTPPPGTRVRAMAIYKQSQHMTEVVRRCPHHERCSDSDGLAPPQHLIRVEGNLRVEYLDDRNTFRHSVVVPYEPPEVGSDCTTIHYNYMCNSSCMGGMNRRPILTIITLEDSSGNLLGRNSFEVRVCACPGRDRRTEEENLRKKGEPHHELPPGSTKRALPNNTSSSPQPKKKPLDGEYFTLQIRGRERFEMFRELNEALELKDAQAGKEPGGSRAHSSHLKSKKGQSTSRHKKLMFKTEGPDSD
# Tumour suppressor p53/oncoprotein Mdm2 (Homo sapiens), sequence (Q00987 whole entry, looked up): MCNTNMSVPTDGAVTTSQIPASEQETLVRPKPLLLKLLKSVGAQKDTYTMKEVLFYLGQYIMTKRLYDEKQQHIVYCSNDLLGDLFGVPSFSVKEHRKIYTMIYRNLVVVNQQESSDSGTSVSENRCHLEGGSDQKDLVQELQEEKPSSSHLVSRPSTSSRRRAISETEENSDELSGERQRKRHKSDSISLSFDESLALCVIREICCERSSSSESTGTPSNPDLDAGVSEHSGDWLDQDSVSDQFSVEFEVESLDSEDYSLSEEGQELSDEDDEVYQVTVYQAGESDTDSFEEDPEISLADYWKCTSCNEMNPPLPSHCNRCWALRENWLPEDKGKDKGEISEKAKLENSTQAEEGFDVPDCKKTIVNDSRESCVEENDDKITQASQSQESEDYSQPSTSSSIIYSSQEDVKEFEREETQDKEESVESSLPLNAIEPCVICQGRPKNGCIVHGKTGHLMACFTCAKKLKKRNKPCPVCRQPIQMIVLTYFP
# [16] = system: HepG2; experiment: Induction of apoptosis in human HepG2 cells assessed as downregulation of Bcl-xL expression at 0.2 uM after 24 hrs by Western blot method; type: functional, cell-based
# [17] = system: HepG2; experiment: Induction of apoptosis in human HepG2 cells assessed as upregulation of Bid expression at 0.2 uM after 24 hrs by Western blot method; type: functional, cell-based
# [18] = system: HepG2; experiment: Induction of apoptosis in human HepG2 cells assessed as ratio of Bax/Bcl-2 at 0.2 uM after 24 hrs by Western blot method (reference value: 0.23); type: functional
# [19] = Half life in cell culture medium at 10 uM by HPLC method; type: physicochemical
# [20] = Half life in Kunming mouse plasma at 10 uM by HPLC method; type: ADME, cell-free
# [21] = system: HepG2; experiment: Cell cycle arrest in human HepG2 cells assessed as accumulation at S phase at 0.2 uM after 28 hrs by propidium iodide staining-based flow cytometric method relative to control
compound,measurement,setting,value
Cc1ccc2c(=O)c3cccc(CC(=O)OCCCCCOc4c5c(cc6c(=O)c7ccccc7oc46)CCC(C)(C)O5)c3oc2c1C,IC50,[1],11.2 µM
same,IC50,[2],8.72 µM
same,IC50,[3],1.53 µM
same,IC50,[4],15 µM
Cc1ccc2c(=O)c3cccc(CC(=O)OCCCCCCOc4c5c(cc6c(=O)c7ccccc7oc46)CCC(C)(C)O5)c3oc2c1C,IC50,[1],1.13 µM
same,IC50,[2],0.534 µM
same,IC50,[3],0.216 µM
same,IC50,[4],9.13 µM
same,IC50,[5],378 to 452 µM
same,Activity,[6],Non-Toxic
same,Activity,[7],Non-Toxic
same,IC50,[8],293 to 352 µM
same,Ratio IC50,[9],2092
same,Activity,[10],38%
same,Activity,[11],42%
same,Activity,[12],Active
same,Activity,[13],Active
same,Activity,[14],Active
same,fold change (FC),[15],0.81
same,Activity,[16],Active
same,Activity,[17],Active
same,Ratio,[18],0.87
same,half-life at 10 µM,[19],24.8 h
same,half-life at 10 µM,[20],4.2 h
same,Activity,[21],90%
Cc1ccc2c(=O)c3cccc(CC(=O)OCCCOc4c5c(cc6c(=O)c7ccccc7oc46)CCC(C)(C)O5)c3oc2c1C,IC50,[1],32.2 µM
same,IC50,[2],51.7 µM
same,IC50,[3],32.7 µM
same,IC50,[4],32.3 µM
